The record followed here is article PMC2642990, “The Glycogen-Binding Domain on the AMPK β Subunit Allows the Kinase to Act as a Glycogen Sensor” (Cell Metabolism, 2009).

The target in test [1] is T1, recombinant AMPK complex (myc-α1:β1:γ1) (Rattus norvegicus, UniProt P80386).
T1 construct: recombinant AMPK complex (myc-α1:β1:γ1) containing full-length (1–270) or truncated β1 subunit lacking the GBD (172–270); made in house; host or cells: human CCL13 cells, co-transfected; isolated by anti-myc immunoprecipitation
T1 sequence (P80386 whole entry, the tested form may be a part): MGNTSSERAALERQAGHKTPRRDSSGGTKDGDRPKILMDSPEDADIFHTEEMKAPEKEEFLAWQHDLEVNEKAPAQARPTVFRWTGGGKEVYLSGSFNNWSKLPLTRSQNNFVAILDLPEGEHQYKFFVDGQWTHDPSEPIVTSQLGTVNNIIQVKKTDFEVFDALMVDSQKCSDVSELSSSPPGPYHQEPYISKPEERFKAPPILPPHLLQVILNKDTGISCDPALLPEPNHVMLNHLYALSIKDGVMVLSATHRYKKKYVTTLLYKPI
T1 sequence (P54645 13-559 partner limits assumed): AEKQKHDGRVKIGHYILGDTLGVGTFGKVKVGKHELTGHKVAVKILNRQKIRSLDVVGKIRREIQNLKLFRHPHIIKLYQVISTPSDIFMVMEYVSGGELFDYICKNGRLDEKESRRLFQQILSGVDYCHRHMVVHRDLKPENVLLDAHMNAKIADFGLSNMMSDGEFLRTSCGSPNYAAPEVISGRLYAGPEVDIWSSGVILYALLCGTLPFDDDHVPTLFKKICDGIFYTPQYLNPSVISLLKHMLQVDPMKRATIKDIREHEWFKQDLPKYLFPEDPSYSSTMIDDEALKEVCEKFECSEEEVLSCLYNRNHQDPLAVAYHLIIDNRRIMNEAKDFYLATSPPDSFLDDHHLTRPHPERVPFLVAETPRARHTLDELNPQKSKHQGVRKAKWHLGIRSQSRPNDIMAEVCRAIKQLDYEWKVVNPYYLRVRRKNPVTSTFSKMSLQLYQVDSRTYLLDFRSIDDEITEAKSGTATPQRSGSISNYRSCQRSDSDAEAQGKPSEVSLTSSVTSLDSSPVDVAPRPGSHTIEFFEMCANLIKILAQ
T1 sequence (P80385 whole entry partner, the tested form may be a part): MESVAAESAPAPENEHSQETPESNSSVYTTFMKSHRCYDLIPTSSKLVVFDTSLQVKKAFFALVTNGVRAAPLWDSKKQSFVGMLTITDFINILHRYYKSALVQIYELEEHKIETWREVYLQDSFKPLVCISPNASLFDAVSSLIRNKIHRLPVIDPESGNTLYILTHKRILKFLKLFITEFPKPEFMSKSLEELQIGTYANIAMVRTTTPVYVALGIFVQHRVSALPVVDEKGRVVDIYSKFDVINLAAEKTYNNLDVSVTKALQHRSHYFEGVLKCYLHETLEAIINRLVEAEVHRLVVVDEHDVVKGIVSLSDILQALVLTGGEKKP
Put plainly: recombinant wild-type AMPK expressed in CCL13 cells, assayed in anti-myc immunoprecipitates. The class given is biochemical. The note with it: 20 mM; Figure 5D. The source says: Figure 2 Allosteric Inhibition of AMPK by Different Glycogen Preparations (A) Concentration dependence of inhibition of native rat liver AMPK by preparations of bovine and rat liver glycogen; glycogen concentrations expressed as glucose produced after total hydrolysis. Data were fitted to an IC50 equation (see Supplemental Experimental Procedures), and curves were generated using the estimated best-fit parameters. (B) Concentration dependence of inhibition of native rat liver AMPK by bovine liver glycogen in the presence and absence of 200 μM AMP; curves were generated as in (A). (C) Inhibition by bovine liver glycogen of recombinant AMPK complex (myc-α1:β1:γ1) containing full-length (1–270) or truncated β1 subunit lacking the GBD (172–270). Complexes were expressed in CCL13 cells and purified by immunoprecipitation prior to assay with or without glycogen (200 mM glucose equivalents). Data are means ± SEM (n = 3). ^∗Activity different from control without glycogen by t test (p < 0.05). […] Results are expressed as percentages of the activity in controls without glycogen, and data are mean ± SEM (n = 3). […]

Another test addresses T2, β1-GBD (Rattus norvegicus, UniProt P80386).
T2 construct: The rat β1 GBD (residues 70-172 was cloned into pGEX6P2, expressed in Escherichia coli (BL21)); made in house; host or cells: E. coli BL21
T2 sequence (P80386 70-172): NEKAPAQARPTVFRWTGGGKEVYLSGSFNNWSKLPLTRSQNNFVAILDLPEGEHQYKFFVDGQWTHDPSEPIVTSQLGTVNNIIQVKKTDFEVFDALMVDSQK
In words: capture of glycogen hydrolysate fragments on GST-β1 GBD affinity column. The class given is binding. The conditions noted are these: from partial acid hydrolysate of bovine liver glycogen; eluted with propionic acid. The text has this: In an attempt to establish the chemical nature of the regions of glycogen that bind to the GBD and cause inhibition of the AMPK complex, we carried out partial acid hydrolysis of bovine liver glycogen and utilized the β1 GBD as an affinity matrix to purify hydrolysis products that bound to the GBD. The hydrolysis conditions were chosen to yield a range of oligosaccharides containing up to six glucose units, as detected by high-performance anion exchange chromatography (HPAEC). The hydrolysate was passed down a glutathione Sepharose column to which the GST-GBD had been prebound, and bound oligosaccharides eluted with propionic acid. The eluted oligosaccharides were analyzed by HPAEC (Figure 5A). […] That this disaccharide contained glucose was confirmed by collision-induced dissociation and tandem mass spectrometry (Figure 5B); the product ion spectrum contained a daughter peak at 203, corresponding to the mass of glucose plus one Na^+ ion. […]
To 60 μl of the material from HPAEC, 5 μl of 80% (v/v) acetonitrile plus 2% (v/v) formic acid was added. Small aliquots of this solution were transferred to Waters nanotips (Type F; Millipore, Watford, UK) and analyzed by electrospray ionization–mass spectrometry (ES-MS) in negative ion mode on an ABI Q-StarXL spectrometer (Applied Biosystems, Cambridge, UK). […]

Consider `OC[C@H]1O[C@H](OC[C@H]2OC(O)[C@H](O)[C@@H](O)[C@@H]2O)[C@H](O)[C@@H](O)[C@@H]1O` (some centres unmarked) [isomaltose], for which, in test [1], the “inhibition of wild-type recombinant α1β1γ1” value is on record as “inhibited”. In addition, at β1-GBD, the “binding to immobilised β1-GBD” value is on record as “bound to the β1-GBD”.
